Data on 33 compounds can be found in patent publication US10662171B2, “Antidiabetic bicyclic compounds” (Merck Sharp & Dohme Corp., priority 2014, dated 2020).

The target in assay [1] is T1, human GPR40 (Homo sapiens, UniProt O14842).
T1 construct: expressed in transfected cells; host or cells: HEK cells stably expressing the aequorin reporter
The experiment in a line: Inositol Phosphate Turnover (IP1) Assay 2. The conditions noted are these: HEK cells stably expressing human GPR40; compound acoustically transferred; 60 minutes at 37 degrees. It is filed as cell-based. As to the method:
(§1) Human and mouse GPR40 stable cell-lines were generated in CHO cells stably expressing NFAT BLA (Beta-lactamase). A human GPR40 stable cell-line was generated in HEK cells stably expressing the aequorin expressing reporter. The expression plasmids were transfected using lipofectamine (Life Technologies) following manufacturer's instructions. Stable cell-lines were generated following drug selection.
(§2) The assay is performed in 384-well format. HEK cells stably expressing human GPR40 are plated at 15,000 cells per well in growth medium (DMEM/10% fetal calf serum). Cell plates are then incubated 16 hours at 37 degrees in a 5% CO2 incubator.
(§3) Measurement of Inositol Phosphate Turnover (IP1) is performed using the CisBio IP-One kit (Part number 62IPAPEB). After the 16 hour incubation, the cells are washed with HEPES buffer and 10 ul of stimulation buffer (prepared as described in the kit) is added to each well. In a separate plate, compounds are diluted in DMSO (400-fold over the final concentration in the assay well) and 25 nl is acoustically transferred to the appropriate well in the assay cell plate. The plates were then incubated for 60 minutes at 37 degrees. 10 ul of detection buffer (also prepared as described in the IP-One kit) is added to each well and the plates are incubated for 60 minutes in the dark. The plates are then read in a Perkin Elmer EnVision or equivalent reader able to measure FRET. Fluorescent ratio of emission at 665 and 620 nm is then converted to IP1 concentration by back calculating from an IP1 standard curve prepared at the time of the assay.

The target of assay [2] is T1, human GPR40. Description: Inositol Phosphate Turnover (IP1) Assay 1. It is filed as cell-based. The conditions noted are these: HEK cells stably expressing human GPR40; compound transferred via pocket tip; 60 minutes at 37 degrees. As to the method: as §1, §2
as §3, with “is” for “is acoustically”, “transferred via pocket tip” for “transferred”, “are” for “were”

Usually EC50 stands for the concentration that produces a half-maximal response. Read a high EC50 as a less potent agent.

T1 sequence (O14842 whole entry): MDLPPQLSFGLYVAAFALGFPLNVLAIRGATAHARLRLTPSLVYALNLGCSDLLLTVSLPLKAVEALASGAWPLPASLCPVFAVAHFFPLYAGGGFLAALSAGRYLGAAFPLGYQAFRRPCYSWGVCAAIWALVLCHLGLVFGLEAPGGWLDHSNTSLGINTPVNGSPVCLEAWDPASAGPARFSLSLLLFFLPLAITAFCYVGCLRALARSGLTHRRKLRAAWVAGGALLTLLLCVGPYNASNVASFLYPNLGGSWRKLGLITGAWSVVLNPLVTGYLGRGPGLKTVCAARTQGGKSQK

`COc1ccc(F)c(-c2ccc([C@@H]3Cc4cc([C@H](C5CC5)[C@H](C)C(=O)O)ccc4CO3)cc2)c1` [Example 21, (2S,3R)-3-cyclopropyl-3-((S)-3-(2′-fluoro-5′-methoxy-[1,1′-biphenyl]-4-yl)isochroman-6-yl)-2-methylpropanoic acid]: the half-maximal effective concentration (EC50) on human GPR40 [1] is 0.21 nM. Turning to `COc1ccc(F)c(-c2ccc(C3COc4ccc([C@@H](C5CC5)[C@@H](C)C(=O)O)cc4C3)cc2)c1` (single isomer, unassigned) [Example 9], the midpoint of the response at human GPR40 [2], the EC50, lay at 60 nM.

In turn, `COc1cc(-c2ccc(C3COc4ccc([C@H](C5CC5)[C@H](C)C(=O)O)cc4C3)cc2)ccn1` (stereo partly drawn) [Example 12] registered a half-maximal effective concentration (EC50) at human GPR40 [2] of 12 nM. On the same count and under the same terms, the same measure for `COc1ccc(F)c(-c2ccc(C3Cc4cc(C(CC(=O)O)C5CC5)ccc4CO3)cc2)c1` (mixture of isomers) [Example 20, 3-cyclopropyl-3-(3-(2′-fluoro-5′-methoxy-[1,1′-biphenyl]-4-yl)isochroman-6-yl)propanoic acid]: 5380 nM. `C[C@H](C(=O)O)[C@H](c1ccc2c(c1)CC(C1CCN(c3ncccc3C(F)(F)F)CC1)OC2)C1CC1` (stereo partly drawn) [Example 40, (2S,3R)-3-cyclopropyl-2-methyl-3-(3-(1-(3-(trifluoromethyl)pyridin-2-yl)piperidin-4-yl)isochroman-6-yl)propanoic acid] had an EC50 at human GPR40 [1] of 54 nM.

The compound `COc1ccc(F)c(-c2ccc(C3COc4ccc([C@@H](C5CC5)[C@@H](C)C(=O)O)cc4C3)cc2)c1` (single isomer, unassigned) [Example 8] returned a 50% effective concentration (EC50) on human GPR40 [2] of 169 nM.

On to `COc1cc(-c2ccc([C@H]3Cc4cc([C@H](C5CC5)[C@H](C)C(=O)O)ccc4CO3)c(F)c2)ccn1` [Example 38B, (2S,3R)-3-cyclopropyl-3-((R)-3-(2-fluoro-4-(2-methoxy-pyridin-4-yl)phenyl)isochroman-6-yl)-2-methylpropanoic acid], for which the EC50 on human GPR40 [1] was determined as 24.5 nM.

`COc1cc(-c2ccc(C3COc4ccc([C@H](C5CC5)[C@H](C)C(=O)O)cc4C3)c(F)c2)ccn1` (single isomer, unassigned) [Example 17] displayed a 50% effective concentration (EC50) on human GPR40 [1] of 15 nM.

On to `COc1cc(-c2ccc(C3COc4ccc([C@H](C5CC5)[C@H](C)C(=O)O)cc4C3)c(F)c2)ccn1` (stereo partly drawn) [Example 14], for which the response at human GPR40 [2] was half-maximal at 32 nM (EC50). The same measure, in the same setting: next, `COc1cc(-c2ccc(C3COc4ccc([C@H](C5CC5)[C@H](C)C(=O)O)cc4C3)cc2)c(F)cn1` (single isomer, unassigned) [Example 11]: 6.3 nM; `COc1cc(-c2ccc(C3COc4ccc([C@H](C5CC5)[C@H](C)C(=O)O)cc4C3)cc2)ccn1` (single isomer, unassigned) [Example 16]: 12 nM.

Consider `COc1ccc(F)c(-c2ccc(C3COc4ccc(C(CC(=O)O)C5CC5)cc4C3)cc2)c1` (single isomer, unassigned) [Example 3], for which the EC50 at human GPR40 [2] was 330 nM. Compound `COc1cc(-c2ccc(C3=Cc4cc([C@H](C5CC5)[C@@H](C)C(=O)O)ccc4CC3)c(F)c2)ccn1` (single isomer, unassigned) [Example 32] registered an EC50 at human GPR40 [1] of 28 nM.

Compound `COc1cc(-c2ccc(C3Cc4cc([C@H](C5CC5)[C@H](C)C(=O)O)ccc4CO3)cc2)c(F)cn1` (single isomer, unassigned) [Example 39B] showed an EC50 at human GPR40 [1] of 5.2 nM. On human GPR40 [2], `COc1ccc(F)c(-c2ccc(C3CCc4ccc(C(C5CC5)C(C)C(=O)O)cc4C3)cc2)c1` (stereo not drawn) [Example 26, 3-cyclopropyl-3-(7-(2′-fluoro-5′-methoxy-[1,1′-biphenyl]-4-yl)-5,6,7,8-tetrahydronaphthalen-2-yl)-2-methylpropanoic acid] registered a 50% effective concentration (EC50) of 24 nM.

Compound `COc1cc(-c2ccc(C3CCc4ccc(C(C5CC5)C(C)C(=O)O)cc4C3)c(F)c2)ccn1` (single isomer, unassigned) [Example 34] returned an EC50 on human GPR40 [1] of 13 nM. Compound `COc1ccc(F)c(-c2ccc(C3COc4ccc(C(CC(=O)O)C5CC5)cc4C3)cc2)c1` (single isomer, unassigned) [Example 4] came in with a concentration giving a half-maximal response (EC50) at human GPR40 [2] of 75 nM. As to `COc1ccc(F)c(-c2ccc(C3CSc4ccc([C@H](C5CC5)[C@H](C)C(=O)O)cc4C3)cc2)c1` (stereo partly drawn) [Example 27, (2S,3R)-3-cyclopropyl-3-(3-(2′-fluoro-5′-methoxy-[1,1′-biphenyl]-4-yl)thiochroman-6-yl)-2-methylpropanoic acid], the EC50 on human GPR40 [2] was 6.9 nM. Take `COc1ccc(F)c(-c2ccc(C3Cc4cc([C@H](C5CC5)[C@H](C)C(=O)O)ccc4C(=O)O3)cc2)c1` (stereo in doubt) [Example 24, (2S,3R)-3-cyclopropyl-3-((S)-3-(2′-fluoro-5′-methoxy-[1,1′-biphenyl]-4-yl)-1-oxoisochroman-6-yl)-2-methylpropanoic acid]: the EC50 at human GPR40 [2] is 166 nM.

In turn, `COc1cc(-c2ccc(C3Cc4cc([C@H](C5CC5)[C@H](C)C(=O)O)ccc4CO3)cc2)c(F)cn1` (single isomer, unassigned) [Example 39A] yielded an EC50 at human GPR40 [1] of 0.76 nM. The compound `COc1cc(-c2ccc(C3=Cc4cc([C@H](C5CC5)[C@H](C)C(=O)O)ccc4CC3)c(F)c2)ccn1` (single isomer, unassigned) [Example 31] gave a half-maximal effective concentration (EC50) on human GPR40 [1] of 0.5 nM. On the same count and under the same terms, the same measure for `COc1cc(-c2ccc(C3CCc4ccc(C(C5CC5)C(C)C(=O)O)cc4C3)c(F)c2)ccn1` (single isomer, unassigned) [Example 33, 3-cyclopropyl-3-(7-(2-fluoro-4-(2-methoxypyridin-4-yl)phenyl)-5,6,7,8-tetrahydronaphthalen-2-yl)-2-methylpropanoic acid]: 1.4 nM.

Compound `COc1ccc(F)c(-c2ccc(C3COc4ccc(C(CC(=O)O)C5CC5)cc4C3)cc2)c1` (stereo not drawn) [Example 1, 3-cyclopropyl-3-(3-(2′-fluoro-5′-methoxy-[1,1′-biphenyl]-4-yl)chroman-6-yl)propanoic acid] registered a half-maximal effective concentration (EC50) on human GPR40 [2] of 155 nM. Same read-out and setting: the same measure for `COc1ccc(F)c(-c2ccc(C3COc4ccc([C@H](C5CC5)[C@H](C)C(=O)O)cc4C3)cc2)c1` (single isomer, unassigned) [Example 7]: 3 nM. On the same count and under the same terms, next, `COc1ccc(F)c(-c2ccc(C3COc4ccc(C(CC(=O)O)C5CC5)cc4C3)cc2)c1` (single isomer, unassigned) [Example 5]: 106 nM; `C[C@H](C(=O)O)[C@H](c1ccc2c(c1)CC(C1CCN(Cc3cc(C(F)(F)F)ccc3C(F)(F)F)CC1)CO2)C1CC1` (stereo partly drawn) [Example 25, Sodium (2S,3R)-3-(3-(1-(2,5-bis(trifluoromethyl)benzyl)piperidin-4-yl)chroman-6-yl)-3-cyclopropyl-2-methylpropanoate]: 729 nM. On the same count and under the same terms, the same measure for `COc1ccc(F)c(-c2ccc(C3Cc4cc([C@H](C5CC5)[C@H](C)C(=O)O)ccc4S(=O)(=O)C3)cc2)c1` (stereo partly drawn) [Example 28, (2S,3R)-3-Cyclopropyl-3-(3-(2′-fluoro-5′-methoxy-[1,1′-biphenyl]-4-yl)-1,1-dioxidothiochroman-6-yl)-2-methylpropanoic acid]: 69 nM. Consider `COc1cc(-c2ccc(C3COc4ccc([C@H](C5CC5)[C@H](C)C(=O)O)cc4C3)cc2)ccn1` (single isomer, unassigned) [Example 15], for which the EC50 at human GPR40 [2] turned out to be 26 nM. In turn, `C[C@H](C(=O)O)[C@H](c1ccc2c(c1)CC(c1ccc(-c3cccc(OC4CC4)c3)cc1)CO2)C1CC1` (stereo partly drawn) [Example 19, (2S,3R)-3-(3-(3′-cyclopropoxy-[1,1′-biphenyl]-4-yl)chroman-6-yl)-3-cyclopropyl-2-methylpropanoic acid] registered an EC50 on human GPR40 [2] of 250 nM. Compound `COc1cc(-c2ccc(C3COc4ccc([C@H](C5CC5)[C@H](C)C(=O)O)cc4C3)cc2)c(F)cn1` (single isomer, unassigned) [Example 10] came in with a 50% effective concentration (EC50) at human GPR40 [2] of 13 nM. For the compound `Cc1cccc(C)c1-c1ccc(C2COc3ccc([C@H](C4CC4)[C@H](C)C(=O)O)cc3C2)cc1` (stereo partly drawn) [Example 13], at human GPR40 [2], the EC50 was 592 nM. As for `COc1ccc(F)c(-c2ccc(C3COc4ccc([C@H](C5CC5)[C@H](C)C(=O)O)cc4C3)cc2)c1` (single isomer, unassigned) [Example 6], the 50% effective concentration (EC50) on human GPR40 [2] turned out to be 5.6 nM. Same read-out and setting: the same measure for `COc1ccc(F)c(-c2ccc([C@@H]3Cc4cc([C@H](C5CC5)[C@H](C)C(=O)O)ccc4C(=O)O3)cc2)c1` [Example 23, (2S,3R)-3-cyclopropyl-3-((S)-3-(2′-fluoro-5′-methoxy-[1,1′-biphenyl]-4-yl)-1-oxoisochroman-6-yl)-2-methylpropanoic acid]: 424 nM.
